Data reported in patent US9387249B2, “Methods of treating hypertension with at least one angiotensin II receptor blocker and chlorthalidone” (Takeda Pharmaceutical Company Limited, priority 2008, dated 2016).

Tests used:
Type in all cases: in vivo, human
[1] = test system: patients with stage 2 hypertension; assay: Phase 3 randomized double-blind study: safety (adverse events, laboratory tests)
Text: More specifically, as will be discussed in more detail below, the purpose of this study is evaluate the change in 24-hour mean systolic blood pressure (SBP) by ambulatory blood pressure monitoring (ABPM) in response to (5-methyl-2-oxo-1,3-dioxol-4-yl)methyl 2-ethoxy-1-{[2′-(5-oxo-4,5-dihydro-1,2,4-oxadiazol-3-yl)biphenyl-4-yl]methyl}-1H-benzimidazole-7-carboxylate potassium salt plus chlorthalidone compared to placebo plus chlorthalidone for 6 weeks in subjects with uncontrolled essential hypertension. Subjects that qualify for the studied will be discontinued from their current antihypertensive medication. After a 2-week run-in-period, subjects who meet the entry criteria will be given (5-methyl-2-oxo-1,3-dioxol-4-yl)methyl 2-ethoxy-1-{[2′-(5-oxo-4,5-dihydro-1,2,4-oxadiazol-3-yl)biphenyl-4-yl]methyl}-1H-benzimidazole-7-carboxylate potassium salt plus chlorthalidone or placebo plus chlorthalidone once daily for 6 weeks. Blood pressure will be monitored during study visits and ABPM will be used to evaluate blood pressure for 24-hour periods twice during the study. Subjects will receive physical examinations including measurement of vital signs and blood and urine samples will be collected (for analyses related to safety monitoring during study visits). […]

[2] = test system: patients with stage 2 hypertension; assay: Phase 3 randomized double-blind study: change from baseline in 24-hour mean SBP by ambulatory blood pressure monitoring (ABPM); conditions: Chlorthalidone 25 mg + placebo once daily, oral, 6 weeks
Experimental: (§1) This is a phase 3, multi-center, randomized, parallel group, double-blind, placebo-controlled, study to evaluate the efficacy and safety of (5-methyl-2-oxo-1,3-dioxol-4-yl)methyl 2-ethoxy-1-{[2′-(5-oxo-4,5-dihydro-1,2,4-oxadiazol-3-yl)biphenyl-4-yl]methyl}-1H-benzimidazole-7-carboxylate potassium salt when combined with chlorthalidone 25 mg once daily (QD) in subjects with uncontrolled essential hypertension.
(§2) More specifically, as will be discussed in more detail below, the purpose of this study is evaluate the change in 24-hour mean systolic blood pressure (SBP) by ambulatory blood pressure monitoring (ABPM) in response to (5-methyl-2-oxo-1,3-dioxol-4-yl)methyl 2-ethoxy-1-{[2′-(5-oxo-4,5-dihydro-1,2,4-oxadiazol-3-yl)biphenyl-4-yl]methyl}-1H-benzimidazole-7-carboxylate potassium salt plus chlorthalidone compared to placebo plus chlorthalidone for 6 weeks in subjects with uncontrolled essential hypertension. Subjects that qualify for the studied will be discontinued from their current antihypertensive medication. […] Blood pressure will be monitored during study visits and ABPM will be used to evaluate blood pressure for 24-hour periods twice during the study. […]

[3] = test system: patients with stage 2 hypertension; assay: Phase 3 randomized double-blind study: change in clinic SBP; conditions: chlorthalidone plus placebo once daily
Experimental: as §1, §2

CCOc1nc2cccc(C(=O)OCc3oc(=O)oc3C)c2n1Cc1ccc(-c2ccccc2-c2noc(=O)[nH]2)cc1.[K] [Azilsartan medoxomil, (5-methyl-2-oxo-1,3-dioxol-4-yl)methyl 2-ethoxy-1-{[2′-(5-oxo-4,5-dihydro-1,2,4-oxadiazol-3-yl)biphenyl-4-yl]methyl}-1H-benzimidazole-7-carboxylate potassium salt]
Effect on the hypokalemia seen with chlorthalidone alone ([1]; azilsartan medoxomil added to chlorthalidone): attenuated the hypokalemia

NS(=O)(=O)c1cc(C2(O)NC(=O)c3ccccc32)ccc1Cl (stereo not shown) [Chlorthalidone, 2-chloro-5-(1-hydroxy-3-oxo-1,2-dihydroisoindol-1-yl)-benzenesulfonamide]
Δ from baseline, mean, Absolute, Mean 24-Hour SBP by ABPM [2]: −15.9 mm Hg | Absolute reduction in clinic SBP [3]: −21.8 mm Hg | Hypokalemia, frequency ([1]; chlorthalidone plus placebo compared with chlorthalidone plus azilsartan medoxomil): more frequent
